What was measured:
Assay type in all cases: binding
TACR2 = molecular target: T1, TACR2 (Homo sapiens, UniProt P21452); assay: NanoBRET screen HiBiT-TACR2 in HEK293
T1 construct: purchased Promega (in-house HiBiT-GPCR construct library, NanoBRET)
T1 sequence (P21452 1-398): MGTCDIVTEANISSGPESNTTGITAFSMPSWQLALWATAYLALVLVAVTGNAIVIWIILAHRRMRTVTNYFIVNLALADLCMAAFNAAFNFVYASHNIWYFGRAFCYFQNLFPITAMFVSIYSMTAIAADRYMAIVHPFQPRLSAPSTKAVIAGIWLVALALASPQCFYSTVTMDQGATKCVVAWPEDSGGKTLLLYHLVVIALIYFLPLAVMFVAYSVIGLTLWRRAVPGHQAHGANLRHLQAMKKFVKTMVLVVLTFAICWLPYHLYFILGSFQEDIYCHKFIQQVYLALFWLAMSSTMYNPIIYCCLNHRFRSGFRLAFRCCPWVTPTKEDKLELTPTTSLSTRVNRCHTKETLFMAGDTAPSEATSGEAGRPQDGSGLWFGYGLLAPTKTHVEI
Description: (§1) Each tracer candidate was screened across the entire library of HiBiT-GPCR constructs using NanoBRET as the detection modality. As depicted in Figure 4A, the specificity of interactions was evaluated through decrease in BRET due to competitive displacement of a bound tracer by excess parental compound. Each tracer was analyzed for binding to each HiBiT-GPCR fusion in the absence and in the presence of competing parental compound. Briefly, HEK293 cells were transfected with HiBiT-GPCR constructs diluted into promoterless DNA to reduce expression and maximize translocation to the cell surface. Each tracer candidate was then screened at concentrations of 1 μM and 0.1 μM across cells expressing these fusions. Cells were treated for 1.5 h with tracer either alone or in the presence of 20 μM competing parental compound (i.e., control). BRET was measured upon addition of purified LgBiT and subsequent complementation with HiBiT genetically fused to a GPCR. The specificity of interactions was assessed through a decrease in BRET signal due to competitive displacement of the bound tracer. To further gauge the robustness of these interactions, the fold response over the control (i.e., BRETtracer/BRETcontrol) was calculated. We chose a 1.5-fold response, which translates to ≥7-fold signal over noise as the minimal threshold required to score an interaction as positive. […]. Below we highlight the screening results obtained for our exemplary fluorescent tracers based on Clozapine, Amitriptyline and AZD1283.
(§2) HiBiT-GPCR DNA constructs were diluted in 10 mM Tris pH 8 to a final concentration of 0.01 μg/μL, arrayed in 96-well plates and stored at −20 °C. For transfection, HEK293 cells were suspended in Opti-MEM (without phenol red) supplemented with 2% fetal bovine serum (Seradigm) and 100 units/mL penicillin–streptomycin (Gibco) at a final concentration of 220,000 cells/mL and dispensed into white 96-well plates at 90 μL/well. Subsequent transfections and screens were carried using an Agilent Bravo Automated Liquid Handling Platform. First, the 96-well HiBiT DNA arrays were diluted 25-fold in Opti-MEM (without serum or phenol red) to a final concentration of 0.0004 μg/μL and 20 μL of the diluted DNAs were transferred into new 96-well plates. Next, promoterless carrier DNA (1 μg/μL) was diluted 25-fold (0.04 μg/μL) and then dispensed into the diluted arrays at 20 μL/well. Following brief mixing, Viafect transfection reagent (Promega) diluted 16-fold into Opti-MEM was dispensed into the plates at 40 μL/well. After mixing by pipetting, plates were incubated for 10 min on the pipetting station deck. The DNA-transfection reagent complexes were then added to plates containing cells. To facilitate the screen, 10 μL of DNA-transfection reagent complexes were added in duplicates to the top 4 and bottom 4 rows, resulting in two identical 48-well arrays per plate. Plates with transfected cells were incubated for 18–20 h at 37 °C/5% CO2. A screen of each tracer across the entire library using two different concentrations requires duplicate plates of transfected cells. Depending on the number of tracers being screened, transfections can be scaled up using the same ratios. The next day, for each tracer, four 20× screening solutions in tracer dilution buffer (Promega) were prepared: two duplicates at final concentration of 20 μM and two duplicates at a final concentration of 2 μM. A competing unmodified compound was added to one of each duplicate at a final concentration of 400 μM. The four resulting solutions were diluted 4-fold in Opti-MEM without serum or phenol red to generate 5× solutions (5 µM and 0.5 µM tracer +/− 100 μM competing compound). To screen the library, a BioTek MultiFlo FX liquid dispenser was used to dispense 22.5 µL of tracer solution to the top 4 rows and 22.5 µL tracer + competing compound solution to the 4 bottom rows. Plates were briefly mixed on an orbital shaker and incubated for 1.5 h at room temperature. […]

CXCR6 = molecular target: T2, CXCR6 (Homo sapiens, UniProt O00574); assay: NanoBRET screen HiBiT-CXCR6 in HEK293
T2 construct: purchased Promega (in-house HiBiT-GPCR construct library, NanoBRET)
Description: as §1, §2

CXCR3 = molecular target: T3, CXCR3 (Homo sapiens, UniProt P49682); assay: NanoBRET screen HiBiT-CXCR3 in HEK293
T3 construct: purchased Promega (in-house HiBiT-GPCR construct library, NanoBRET)
T3 sequence (P49682 1-368): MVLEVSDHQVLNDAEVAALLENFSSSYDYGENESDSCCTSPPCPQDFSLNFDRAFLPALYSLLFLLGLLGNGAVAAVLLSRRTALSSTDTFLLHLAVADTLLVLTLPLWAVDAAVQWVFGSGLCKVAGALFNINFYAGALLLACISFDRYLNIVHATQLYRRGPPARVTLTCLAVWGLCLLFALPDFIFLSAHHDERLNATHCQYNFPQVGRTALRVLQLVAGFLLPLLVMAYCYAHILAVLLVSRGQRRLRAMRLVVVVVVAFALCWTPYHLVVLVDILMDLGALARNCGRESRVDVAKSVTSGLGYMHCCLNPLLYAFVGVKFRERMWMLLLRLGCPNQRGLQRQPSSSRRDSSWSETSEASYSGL
Description: as §1, §2

NPBWR2 = molecular target: T4, NPBWR2 (Homo sapiens, UniProt P48146); assay: NanoBRET screen HiBiT-NPBWR2 in HEK293
T4 construct: purchased Promega (in-house HiBiT-GPCR construct library, NanoBRET)
Description: as §1, §2

ADRA2B = molecular target: T5, ADRA2B (Homo sapiens, UniProt P18089); assay: NanoBRET screen HiBiT-ADRA2B in HEK293
T5 construct: purchased Promega (in-house HiBiT-GPCR construct library, NanoBRET)
T5 sequence (P18089 1-450): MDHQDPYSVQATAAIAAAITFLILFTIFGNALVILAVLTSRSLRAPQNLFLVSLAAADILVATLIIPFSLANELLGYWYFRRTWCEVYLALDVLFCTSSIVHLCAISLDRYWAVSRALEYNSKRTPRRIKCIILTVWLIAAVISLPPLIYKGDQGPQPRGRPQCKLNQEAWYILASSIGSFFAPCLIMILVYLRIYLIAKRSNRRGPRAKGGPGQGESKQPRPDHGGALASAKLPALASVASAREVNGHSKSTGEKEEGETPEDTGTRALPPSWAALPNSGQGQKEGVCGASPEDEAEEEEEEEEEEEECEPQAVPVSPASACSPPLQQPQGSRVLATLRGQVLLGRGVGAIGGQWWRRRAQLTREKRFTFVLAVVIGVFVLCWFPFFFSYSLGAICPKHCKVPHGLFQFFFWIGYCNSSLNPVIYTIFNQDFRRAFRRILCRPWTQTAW

T4 sequence (P48146 whole entry): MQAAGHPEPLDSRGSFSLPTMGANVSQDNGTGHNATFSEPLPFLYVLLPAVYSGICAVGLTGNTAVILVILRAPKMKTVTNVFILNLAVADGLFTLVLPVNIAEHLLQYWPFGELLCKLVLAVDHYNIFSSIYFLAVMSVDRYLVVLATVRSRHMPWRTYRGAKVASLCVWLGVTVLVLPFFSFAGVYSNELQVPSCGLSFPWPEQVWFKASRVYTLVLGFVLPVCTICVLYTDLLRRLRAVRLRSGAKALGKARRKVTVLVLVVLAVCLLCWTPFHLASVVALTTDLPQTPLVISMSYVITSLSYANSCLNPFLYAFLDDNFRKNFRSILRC
T2 sequence (O00574 whole entry): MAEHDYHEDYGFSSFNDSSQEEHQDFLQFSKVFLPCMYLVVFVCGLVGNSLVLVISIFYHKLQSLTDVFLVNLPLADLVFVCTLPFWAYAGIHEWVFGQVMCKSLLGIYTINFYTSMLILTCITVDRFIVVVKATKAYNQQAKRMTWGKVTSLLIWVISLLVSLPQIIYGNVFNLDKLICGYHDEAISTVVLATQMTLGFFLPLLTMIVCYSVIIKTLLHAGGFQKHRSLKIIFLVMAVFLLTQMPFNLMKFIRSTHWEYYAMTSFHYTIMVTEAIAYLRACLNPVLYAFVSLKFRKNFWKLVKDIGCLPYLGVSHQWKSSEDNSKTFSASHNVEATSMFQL

Compound | NanoBRET Fold Response (TACR2; TACR2, tracer 0.1μM) | NanoBRET Fold Response (TACR2; TACR2, tracer 1μM) | NanoBRET Fold Response (CXCR6; CXCR6, tracer 0.1μM) | NanoBRET Fold Response (CXCR6; CXCR6, tracer 1μM) | NanoBRET Fold Response (CXCR3; CXCR3, tracer 0.1μM) | NanoBRET Fold Response (CXCR3; CXCR3, tracer 1μM) | NanoBRET Fold Response (NPBWR2; NPBWR2, tracer 0.1μM) | NanoBRET Fold Response (NPBWR2; NPBWR2, tracer 1μM) | NanoBRET Fold Response (ADRA2B; ADRA2B, tracer 0.1μM) | NanoBRET Fold Response (ADRA2B; ADRA2B, tracer 1μM) | other results
CCOC(=O)c1cc(C#N)c(N2CCC(C(=O)NS(=O)(=O)Cc3ccccc3/C=C/C(=O)NCCNC(=O)CCc3ccc4n3[B-](F)(F)[N+]3=C(c5ccc[nH]5)C=CC3=C4)CC2)nc1C [AZD1283-1-NB590] |  |  |  |  |  |  |  |  |  |  | NanoBRET Fold Response (TACR2; TACR2, 0.1μM): 1.09; NanoBRET Fold Response (TACR2; TACR2, 1μM): 1.04; NanoBRET Fold Response (CXCR6; CXCR6, 0.1μM): 0.89; NanoBRET Fold Response (CXCR6; CXCR6, 1μM): 0.29; NanoBRET Fold Response (CXCR3; CXCR3, 0.1μM): 0.98; NanoBRET Fold Response (CXCR3; CXCR3, 1μM): 1.17; NanoBRET Fold Response (NPBWR2; NPBWR2, 0.1μM): 0.95; NanoBRET Fold Response (NPBWR2; NPBWR2, 1μM): 0.99; NanoBRET Fold Response (ADRA2B; ADRA2B, 0.1μM): 1.09; NanoBRET Fold Response (ADRA2B; ADRA2B, 1μM): 1.05
N#CN=C(NCCCOc1cccc(CN2CCCCC2)c1)NCCNC(=O)CCOCCOCCOCCOCCNC(=O)CCc1ccc2n1[B-](F)(F)[N+]1=C(c3ccc[nH]3)C=CC1=C2 [Aminopotentidine-2-NB590] | 0.98 | 1.02 | 1.06 | 1.03 | 1.33 | 1.05 | 1.04 | 0.92 | 1.12 | 1.11 | 
COc1ccc2c(n1)c(CCNC(C)=O)cn2CCNC(=O)CCc1ccc2n1[B-](F)(F)[N+]1=C(c3ccc[nH]3)C=CC1=C2 [Azamelatonin-1-NB590] |  |  |  |  |  |  |  |  |  |  | NanoBRET Fold Response (TACR2; 0.1μM tracer): 0.81; NanoBRET Fold Response (TACR2; 1μM tracer): 0.91; NanoBRET Fold Response (CXCR6; 0.1μM tracer): 1.07; NanoBRET Fold Response (CXCR6; 1μM tracer): 0.89; NanoBRET Fold Response (CXCR3; 0.1μM tracer): 1.19; NanoBRET Fold Response (CXCR3; 1μM tracer): 0.93; NanoBRET Fold Response (NPBWR2; 0.1μM tracer): 0.91; NanoBRET Fold Response (NPBWR2; 1μM tracer): 0.82; NanoBRET Fold Response (ADRA2B; 0.1μM tracer): 1.18; NanoBRET Fold Response (ADRA2B; 1μM tracer): 0.96
COc1ccc2[nH]c(-c3ccc(CNC(=O)CCOCCOCCOCCOCCNC(=O)CCc4ccc5n4[B-](F)(F)[N+]4=C(c6ccc[nH]6)C=CC4=C5)cc3)c(CCNC(C)=O)c2n1 [AzomelatoninICO9-2-NB590] |  |  |  |  |  |  |  |  |  |  | NanoBRET Fold Response (TACR2; 0.1μM tracer): 0.37; NanoBRET Fold Response (TACR2; 1μM tracer): 0.84; NanoBRET Fold Response (CXCR6; 0.1μM tracer): 0.98; NanoBRET Fold Response (CXCR6; 1μM tracer): 1.16; NanoBRET Fold Response (CXCR3; 0.1μM tracer): 0.79; NanoBRET Fold Response (CXCR3; 1μM tracer): 0.91; NanoBRET Fold Response (NPBWR2; 0.1μM tracer): 1.08; NanoBRET Fold Response (NPBWR2; 1μM tracer): 0.90; NanoBRET Fold Response (ADRA2B; 0.1μM tracer): 1.35; NanoBRET Fold Response (ADRA2B; 1μM tracer): 1.12
O=C(CCOCCOCCOCCOCCNC(=O)CCc1ccc2n1[B-](F)(F)[N+]1=C(c3ccc[nH]3)C=CC1=C2)NCCCN1CCN(C2=Nc3cc(Cl)ccc3Nc3ccccc32)CC1 [Clozapine-a-2-NB590] |  |  |  |  |  |  |  |  |  |  | NanoBRET Fold Response (TACR2; TACR2, 0.1μM tracer): 1.02; NanoBRET Fold Response (TACR2; TACR2, 1μM tracer): 0.89; NanoBRET Fold Response (CXCR6; CXCR6, 0.1μM tracer): 0.98; NanoBRET Fold Response (CXCR6; CXCR6, 1μM tracer): 1.08; NanoBRET Fold Response (CXCR3; CXCR3, 0.1μM tracer): 1.02; NanoBRET Fold Response (CXCR3; CXCR3, 1μM tracer): 1.22; NanoBRET Fold Response (NPBWR2; NPBWR2, 0.1μM tracer): 1.04; NanoBRET Fold Response (NPBWR2; NPBWR2, 1μM tracer): 0.89; NanoBRET Fold Response (ADRA2B; ADRA2B, 0.1μM tracer): 7.79; NanoBRET Fold Response (ADRA2B; ADRA2B, 1μM tracer): 7.79
O=C(CCOCCOCCOCCOCCNC(=O)CCc1ccc2n1[B-](F)(F)[N+]1=C(c3ccc[nH]3)C=CC1=C2)NCCCN1CCN(C2=Nc3ccccc3Oc3ccc(Cl)cc32)CC1 [Loxapine-a-2-NB590] | 0.86 | 0.64 | 1.00 | 1.01 | 1.04 | 1.26 | 1.07 | 0.93 | 3.38 | 5.35 | 
COc1ccccc1N1CCN(CCCCN2C(=O)c3ccc(CNC(=O)CCOCCOCCOCCOCCNC(=O)CCc4ccc5n4[B-](F)(F)[N+]4=C(c6ccc[nH]6)C=CC4=C5)cc3C2=O)CC1 [NAN-190-2-NB590] | 0.88 | 1.04 | 0.94 | 1.02 | 0.94 |  | 1.00 |  | 4.00 | 5.99 | 
COc1ccccc1N1CCN(CCCCN2C(=O)c3ccc(CNC(=O)CCOCCNC(=O)c4ccc(CNC(=O)CCc5ccc6n5[B-](F)(F)[N+]5=C(c7ccc[nH]7)C=CC5=C6)cc4)cc3C2=O)CC1 [NAN-190-3-NB590] | 1.12 | 1.09 | 1.15 | 0.93 | 0.97 | 1.01 | 0.96 | 0.79 | 4.24 | 5.21 | 
CC(C)N(CC[C@H](c1ccccc1)c1cc(CCNC(=O)CCOCCOCCOCCOCCNC(=O)CCc2ccc3n2[B-](F)(F)[N+]2=C(c4ccc[nH]4)C=CC2=C3)ccc1O)C(C)C [Tolterodine-2-NB590] | 0.87 | 1.41 | 0.89 | 0.91 | 1.87 | 1.01 | 1.41 | 0.83 | 0.95 | 1.04 | 
